Results reported in patent publication US4401659A, “Muramyl-peptides fixed to peptide-polymers and pharmaceutical compositions containing them” (Agence National de Valorisation de la Recherche (ANVAR), priority 1979, dated 1983).

Columns and labels:
[1] = tested on: Klebsiella pneumoniae; assay: Anti-infectious activity with respect to Klebsiella, mice treated i.v. 24 hours before i.m. inoculation; format: in vivo; details: for Number of survivors at D + 8: controls 4 of 32; for Number of survivors at D + 5: controls 7 of 32; for Number of survivors at D + 3: controls 16 of 32; for Percentage of protection: difference in percentages of survivors versus control group
From the text: The testing procedure is described in the article of CHEDID L. and Col., Proc. Natl. Acad. Sci. USA, 1977, 74, 2089.
It was shown that a dose of about 10^4 Klebsiella pneumoniae, injected by the intramuscular route in mice, results in the progressive death of a considerable part, if not the whole, of the animals in the week following the inoculation. After eight days, the survival of the animals was definitely achieved.
The survival of groups of mice inoculated under the above-indicated conditions and treated by means of the products according to the invention, was recorded.
For these trials, hybrid mice (C57Bl/6 x AKR)F1 raised in the PASTEUR […], from strains derived from the C.N.R.S. breeding station at ORLEANS were used.
The infection by Klebsiella pneumoniae, a strain of the 2-capsular type, biotype d, was done from a culture of 16 hours in a medium for pneumococci (No. 53515, […] PASTEUR). The infecting dose was 1.5.10^4 Klebsiella; it was administered by the intramuscular route.
The administration of the tested product was carried out by the intravenous route in 0.2 ml of apyrogenic physiological solution, the controls receiving the solution alone. It was carried out 24 hours before the inoculation.
The percentage of protection indicated is the difference in the percentages of survivors of the treated group with respect to the control group.

[2] = Sensitisation trials: plantar injection in IFA or CFA, dermal injection three weeks later
Protocol: These trials were undertaken to study the possible immunogenic properties of the products according to the invention. At the same time, sensitisation tests with respect to various products were carried out.
The tests were carried out on guinea-pigs. The preparations shown in column 1 of the Table of the results were injected by the plantar route. They comprise 100 μg of the product tested incorporated in incomplete FREUND adjuvant (IFA) or in complete FREUND adjuvant (CFA).
Three weeks after this first injection, 50 μg of the products indicated in the upper portion of the Table of results were injected by the dermal route. Possible reactions were observed 48 hours later.

[3] = tested on: Klebsiella; assay: Anti-infectious activity with respect to Klebsiella, young mice of 7 days, s.c. treatment and s.c. infection; format: in vivo; details: for Number of survivors at D + 8: controls 0 of 53; for Number of survivors at D + 5: controls 1 of 53; for Number of survivors at D + 3: controls 5 of 53
Protocol: In these trials, the product studied was administered, by the sub-cutaneousroute, 24 hours before the infecting test. For the latter, the infecting dose was 1.2.10^3 Klebsiella; it was also administered by the sub-cutaneous route.

[4] = i.v. at D-1, 1 μg (weight of glycopeptide), 24 mice
[5] = i.v. at D-1, 10 μg (weight of glycopeptide), 32 mice
[6] = s.c. at D-1, 1 μg, 39 young mice
[7] = s.c. at D-1, 10 μg, 75 young mice

multi-[poly-(N-acetyl-muramyl-D-alanyl-D-isoglutaminyl)-D,L-alanyl]-poly-L-lysine [MDP(D-D)(A--L)]
Number of survivors at D + 8 [1, 4]: 6 | Number of survivors at D + 5 [1, 4]: 7 | Number of survivors at D + 3 [1, 4]: 15 | Percentage of protection [1, 4]: 9% | Number of survivors at D + 8 [1, 5]: 17 | Number of survivors at D + 5 [1, 5]: 19 | Number of survivors at D + 3 [1, 5]: 26 | Percentage of protection [1, 5]: 38% | adjuvant to specific immunity ([2]; administered with ovalbumin): is not adjuvant to specific immunity | sensitivity reaction with respect to itself and to adjuvant agents like MDP ([2]; guinea-pigs): does not elicit a sensitivity reaction | Number of survivors at D + 8 [3, 6]: 3 | Number of survivors at D + 5 [3, 6]: 6 | Number of survivors at D + 3 [3, 6]: 19 | Number of survivors at D + 8 [3, 7]: 18 | Number of survivors at D + 5 [3, 7]: 28 | Number of survivors at D + 3 [3, 7]: 50
